Measurements reported in ChEMBL document CHEMBL1255508, “Neopetrosiamine A, biologically active bis-piperidine alkaloid from the Caribbean sea sponge Neopetrosia proxima” (Bioorg Med Chem Lett, 2010).
In brackets after ≈: the same amount, converted by molar mass.

Assays:
Malme-3M = experiment: […] activity against human MALME-3M cells; type: functional, cell-based
Plasmodium falciparum = experiment: Antiplasmodial activity against Plasmodium falciparum; type: functional, organism-based
MCF7 = experiment: […] activity against human MCF7 cells; type: functional, cell-based
Vero = experiment: Cytotoxicity against african green monkey Vero cells; type: cell-based; conditions: Chlorocebus sabaeus
CCRF-CEM = experiment: […] activity against human CCRF-CEM cells; type: functional, cell-based
[1] = tested on: Mycobacterium tuberculosis; experiment: Antimycobacterial activity against Mycobacterium tuberculosis H37Rv by microplate alamar blue assay; type: functional

C1=C\CCCCN2CC[C@@H]3[C@@H](CCCC/C=C\CCCCN4C[C@H](CCCC/1)C[C@H]3C4)C2 [NEOPETROSIAMINE A]
IC50 (Malme-3M): 1500 nM | IC50 (Plasmodium falciparum): 2300 nM | IC50 (MCF7): 3500 nM | IC50 (Vero): 42.4 µg/mL (≈ 96.2 µM) | IC50 (CCRF-CEM): 2000 nM | MIC [1]: 7.5 µg/mL (≈ 17 µM)
